We go through eight molecules from ChEMBL document CHEMBL1201862, “PubChem BioAssay data set” (2004).

Test systems include SF-539; SK-MEL-2; HL-60; A549; EKVX; HCT-116; CAKI-1; KM12; 786-0; OVCAR-3; SW-620; UO-31; OVCAR-4; T47D; NCI-H522; MCF7; M14; MDA-N; COLO 205; NCI-H226.
What all share (test): NCI-60 cell line screen, 48 h

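Test compounds were applied to cells in 96-well plates for 48 hours at 5 doses. GI50: concentration for 50% inhibition of growth.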 Active and inactive are the calls of the source. No stated cut-off is given here; in the data, active = GI50 up to about 1.1 µM and inactive = higher.

As for `COC(=O)c1c(C)cc(OC)c(C/C=C(\C)CCCc2coc(C=C(C)C)c2)c1OC`, the GI50 was 49 µM (inactive) in the assay on SF-539; > 100 µM (inactive) with SK-MEL-2; 21.9 µM (inactive) in the assay on HL-60; > 100 µM (inactive) in the assay on A549; > 100 µM (inactive) in the assay with EKVX; > 100 µM (inactive) with HCT-116. Moreover, the GI50 in the assay on CAKI-1, in the assay with KM12, with 786-0, in the assay with OVCAR-3, with SW-620 and in the assay on UO-31 was > 100 µM (inactive) each time. In addition, the GI50 was > 100 µM (inactive) in the assay on OVCAR-4; 43 µM (inactive) in the assay on T47D; 14.9 µM (inactive) in the assay with NCI-H522; > 100 µM (inactive) in the assay with MCF7; > 100 µM (inactive) with M14; > 100 µM (inactive) in the assay with MDA-N. Moreover, the GI50 in the assay with COLO 205 was > 100 µM (inactive).
In the case of `Cc1cn(C2CC(n3cc(Cn4cc(F)c(=O)[nH]c4=O)nn3)C(CO)O2)c(=O)[nH]c1=O` (centres undefined), the GI50 in the assay with SF-539 was > 100 µM (inactive); with SK-MEL-2 it was > 100 µM (inactive); in the assay on HL-60, 43.7 µM (inactive); in the assay on A549 it was > 100 µM (inactive); in the assay on EKVX it was > 100 µM (inactive); in the assay on HCT-116 it was > 100 µM (inactive). For the same molecule, the GI50 in the assay on CAKI-1, in the assay with NCI-H226, with KM12, with 786-0, in the assay with OVCAR-3 and with SW-620 was > 100 µM (inactive) throughout. Besides, the GI50 in the assay on UO-31, in the assay with OVCAR-4, with T47D, with MCF7, with M14 and with MDA-N was > 100 µM (inactive) throughout. For the same molecule, in the assay on COLO 205, the GI50 is > 100 µM (inactive).
Take `OC(CCN1CCCCC1)(c1ccccc1)c1ccccc1` [PRIDINOL]: the GI50 with SK-MEL-2 is > 100 µM (inactive); in the assay with A549, > 100 µM (inactive); in the assay with EKVX, 79.6 µM (inactive); with HCT-116, > 100 µM (inactive); with CAKI-1 it was > 100 µM (inactive); in the assay with KM12, > 100 µM (inactive). Moreover, the GI50 was > 100 µM (inactive) in the assay on 786-0; > 100 µM (inactive) with OVCAR-3; > 100 µM (inactive) with SW-620; 55.1 µM (inactive) in the assay with UO-31; > 100 µM (inactive) with T47D; > 100 µM (inactive) in the assay with NCI-H522. The GI50 in the assay on MCF7, with M14, in the assay with MDA-N and in the assay on COLO 205 was > 100 µM (inactive) in each case.
Consider `Cc1nc(O)nc2nc3cc(Cl)cc(Cl)c3c(NC(C)(CO)CO)c12`, for which the GI50 in the assay on SF-539 was > 100 µM (inactive); with SK-MEL-2, 29.1 µM (inactive); in the assay with A549 it was > 100 µM (inactive); in the assay on EKVX it was > 100 µM (inactive); with HCT-116, 34 µM (inactive); with CAKI-1, 94.6 µM (inactive). The GI50 was > 100 µM (inactive) with NCI-H226; > 100 µM (inactive) in the assay on KM12; 15.6 µM (inactive) in the assay on 786-0; > 100 µM (inactive) in the assay on OVCAR-3; > 100 µM (inactive) in the assay on SW-620; 91 µM (inactive) in the assay on UO-31. Also, the GI50 in the assay with OVCAR-4 is > 100 µM (inactive); in the assay with T47D it was > 100 µM (inactive); with NCI-H522, > 100 µM (inactive); in the assay with MCF7, 1.55 µM (inactive); in the assay on M14 it was > 100 µM (inactive); in the assay with MDA-N, > 100 µM (inactive). Moreover, the GI50 in the assay with COLO 205 is > 100 µM (inactive).
As to `CCN(CC)CCNC(=O)c1cc2cc(NC(=O)c3cc4cc([N+](=O)[O-])ccc4[nH]3)ccc2[nH]1`, the GI50 in the assay with SF-539 was 6.43 µM (inactive); in the assay with SK-MEL-2 it was > 52.6 µM (inactive); with A549 it was 19.3 µM (inactive); in the assay with EKVX, 4.98 µM (inactive); with HCT-116, 2.85 µM (inactive); in the assay on CAKI-1, > 35.6 µM (inactive). The GI50 in the assay on NCI-H226 is 56.2 µM (inactive); in the assay on KM12 it was 1.71 µM (inactive); in the assay on 786-0, 2.25 µM (inactive); in the assay on OVCAR-3, > 40.6 µM (inactive); in the assay on SW-620, 6.11 µM (inactive); in the assay on UO-31, > 40.5 µM (inactive). The GI50 in the assay on OVCAR-4 was > 50.4 µM (inactive); with T47D it was 18.4 µM (inactive); in the assay on NCI-H522, 3.09 µM (inactive); in the assay on MCF7, 2.39 µM (inactive); in the assay on M14, 57.8 µM (inactive); in the assay on MDA-N, 52.8 µM (inactive). The GI50 in the assay on COLO 205 is 5.68 µM (inactive).
In the case of `Cn1ncc2c(NCc3ccccc3)ncnc21`, the GI50 with SF-539, in the assay on HL-60, with A549, in the assay on EKVX, in the assay on HCT-116 and in the assay with CAKI-1 was > 100 µM (inactive) in each case. Further, the GI50 in the assay on NCI-H226, in the assay with KM12, in the assay with 786-0, in the assay with OVCAR-3, in the assay with SW-620 and with UO-31 was > 100 µM (inactive) throughout. For the same molecule, the GI50 with OVCAR-4, in the assay with T47D, in the assay on MCF7, in the assay with MDA-N and in the assay on COLO 205 was > 100 µM (inactive) each time.
Turning to `CCOC(=O)C#Cc1ccccc1`, the GI50 is 5.74 µM (inactive) with SF-539; 1.69 µM (inactive) in the assay with SK-MEL-2; 14.4 µM (inactive) with HL-60; 13.2 µM (inactive) in the assay on A549; 2.28 µM (inactive) in the assay with EKVX; 1.91 µM (inactive) with HCT-116. For the same molecule, the GI50 with CAKI-1 is 14.4 µM (inactive); in the assay on NCI-H226, 20 µM (inactive); with KM12 it was 12.2 µM (inactive); with 786-0, 4.84 µM (inactive); in the assay on OVCAR-3, 19.1 µM (inactive); with SW-620 it was 8.2 µM (inactive). Moreover, the GI50 in the assay on UO-31 is 0.741 µM (active); in the assay with OVCAR-4, 2.54 µM (inactive); with T47D it was 19.4 µM (inactive); with MCF7, 10.1 µM (inactive); in the assay on M14, 5.14 µM (inactive); in the assay with MDA-N, 4.09 µM (inactive). The GI50 with COLO 205 was 11.2 µM (inactive).
For `Cc1c(C(=O)C(=O)c2ccccc2)c(C)c(C(=O)C(=O)c2ccccc2)c(C)c1C(=O)C(=O)c1ccccc1`, the GI50 with SF-539, with HL-60, with A549, in the assay on EKVX, in the assay on HCT-116 and in the assay on KM12 was > 100 µM (inactive) each time. Further, the GI50 in the assay on 786-0, in the assay with SW-620, in the assay on UO-31, in the assay on OVCAR-4, in the assay with T47D and in the assay with NCI-H522 was > 100 µM (inactive) each time. Further, the GI50 in the assay on MCF7, with M14, in the assay on MDA-N and in the assay on COLO 205 was > 100 µM (inactive) each time.
